Reference: article PMC6442460 (Journal of chemical information and modeling, 2018)
Read-outs that look alike come from different tables or passages of the source.

Columns and labels:
[1] = target: T1, ECL (Erythrina cristagalli lectin) (Erythrina crista-galli, UniProt P83410); conditions: cited from earlier work
T1 sequence (P83410 1-239): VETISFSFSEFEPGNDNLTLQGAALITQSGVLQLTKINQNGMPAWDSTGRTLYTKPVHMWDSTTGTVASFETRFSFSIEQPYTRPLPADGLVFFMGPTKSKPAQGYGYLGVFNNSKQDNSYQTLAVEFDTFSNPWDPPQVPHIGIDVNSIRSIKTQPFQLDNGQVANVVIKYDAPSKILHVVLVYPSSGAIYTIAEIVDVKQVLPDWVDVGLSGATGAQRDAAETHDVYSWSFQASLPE

[2] = target: T1, ECL (Erythrina cristagalli lectin); assay: Protein BLI inhibition; format: binding; conditions: for affinity for ECL (result in words): BLI; for ΔG: binding free energy from BLI KD, standard deviations in parentheses
[3] = target: T1, ECL (Erythrina cristagalli lectin); assay: Isothermal titration calorimetry; format: binding; conditions: relative to 1
[4] = target: T1, ECL (Erythrina cristagalli lectin); conditions: cited from earlier work; remark: listed apart in the source
[5] = target: T1, ECL (Erythrina cristagalli lectin); conditions: cited from earlier work; remark: listed apart in the source

| Compound | inhibitory power relative to D-Gal (result in words) [1] | ΔG [2] | binding in glycan array screening of ECL [5] | further results |
| --- | --- | --- | --- | --- |
| CC(=O)N[C@H]1C(O)O[C@H](CO)[C@@H](O)[C@@H]1O (stereo partly drawn) [D-GlcNAc] | poor inhibitors | – | – | – |
| OC[C@H]1O[C@H](O[C@H]2[C@H](O)[C@@H](O)[C@H](O)O[C@@H]2CO)[C@H](O)[C@@H](O)[C@@H]1O [ligand 8, maltose] | – | – | – | affinity for ECL (result in words) [2]: Neither cellobiose (Glcβ1–4Glcβ, 7) nor maltose (Glcα1–4Glcβ, 8) shows any measurable affinity |
| CC(=O)N[C@H]1C(O)O[C@H](CO)[C@@H](O[C@@H]2O[C@H](CO)[C@H](O)[C@H](O)[C@H]2O)[C@@H]1O (stereo partly shown) [ligand 3, N-acetyllactosamine] | – | –5.66 (0.04) kcal/mol | binders | fold higher affinity of ECL [3]: about 3 fold; reference ΔG ([4]; ITC at 27 °C): –5.5 (0.1) kcal/mol |
| O=C[C@H](O)[C@@H](O)[C@H](O[C@@H]1O[C@H](CO)[C@@H](O)[C@H](O)[C@H]1O)[C@H](O)CO [ligand 7, cellobiose] | – | – | – | affinity for ECL (result in words) [2]: Neither cellobiose (Glcβ1–4Glcβ, 7) nor maltose (Glcα1–4Glcβ, 8) shows any measurable affinity |
| CC(=O)N[C@H]1C(O)O[C@H](CO)[C@@H](O[C@@H]2O[C@H](CO)[C@H](O)[C@H](O)[C@H]2O[C@@H]2O[C@@H](C)[C@@H](O)[C@@H](O)[C@@H]2O)[C@@H]1O (stereo partly shown) [ligand 6, fucosylated N-acetyllactosamine] | – | –6.21 (0.14) kcal/mol | binders | – |
| OC[C@H]1O[C@@H](O[C@H]2[C@H](O)[C@H](O)C(O)O[C@@H]2CO)[C@H](O)[C@@H](O)[C@H]1O (stereo partly drawn) [ligand 2, epi-lactose] | – | –5.08 (0.02) kcal/mol | – | – |
| O=C[C@@H](O)[C@H](O)[C@H](O)CO [D-Ara] | poor inhibitors | – | – | – |
| CC(=O)N[C@H]1[C@H](O[C@H]2[C@H](O)[C@@H](NC(C)=O)C(O)O[C@@H]2CO)O[C@H](CO)[C@H](O)[C@@H]1O (stereo partly shown) [ligand 4, N,N-diacetyllactosamine] | – | – | binders | – |
| OC[C@H]1OC(O)[C@H](O)[C@@H](O)[C@@H]1O (stereo partly drawn) [D-Glc] | poor inhibitors | – | – | – |
| C[C@@H]1OC(O)[C@@H](O)[C@H](O)[C@@H]1O (stereo partly drawn) [L-Fuc] | poor inhibitors | – | – | – |
| OC[C@H]1OC(O)[C@H](O)[C@@H](O)[C@H]1O (stereo partly drawn) [D-Gal, reference compound] | – | – | – | reference ΔG ([4]; ITC at 25 °C): –4.0 (<0.1) kcal/mol |
| C[C@@H]1O[C@@H](O[C@H]2[C@H](O[C@H]3[C@H](O)[C@@H](O)C(O)O[C@@H]3CO)O[C@H](CO)[C@H](O)[C@@H]2O)[C@@H](O)[C@H](O)[C@@H]1O (stereo partly shown) [ligand 5, fucosylated lactose] | – | –5.04 (0.06) kcal/mol | nonbinders | reference ΔG ([4]; ITC at 25 °C): –4.8 (<0.1) kcal/mol |
| OC[C@H]1O[C@@H](O[C@H]2[C@H](O)[C@@H](O)[C@H](O)O[C@@H]2CO)[C@H](O)[C@@H](O)[C@H]1O [ligand 1, lactose] | – | –4.83 (0.04) kcal/mol | nonbinders | reference ΔG ([4]; ITC at 25 °C): –4.8 (<0.1) kcal/mol; reference ΔG ([4]; ITC at 27 °C): –4.9 (0.2) kcal/mol |
